pIC50: −log10 of the molar value. Read-outs that look alike come from different tables or passages of the source. Residues, ends and D or L forms follow the SMILES beside them.
Columns and labels:
[1] = target: T1, FL_Reg1 (full-length human Regnase-1) phosphorylation by TBK1 (Homo sapiens, UniProt Q5D1E8); assay: Regnase-1 phosphorylation inhibition by compounds (AlphaScreen), TBK1, full-length Regnase-1; assay type: biochemical
T1 construct: made in house; host or cells: Expi293 cells
T1 sequence (Q5D1E8 1-599): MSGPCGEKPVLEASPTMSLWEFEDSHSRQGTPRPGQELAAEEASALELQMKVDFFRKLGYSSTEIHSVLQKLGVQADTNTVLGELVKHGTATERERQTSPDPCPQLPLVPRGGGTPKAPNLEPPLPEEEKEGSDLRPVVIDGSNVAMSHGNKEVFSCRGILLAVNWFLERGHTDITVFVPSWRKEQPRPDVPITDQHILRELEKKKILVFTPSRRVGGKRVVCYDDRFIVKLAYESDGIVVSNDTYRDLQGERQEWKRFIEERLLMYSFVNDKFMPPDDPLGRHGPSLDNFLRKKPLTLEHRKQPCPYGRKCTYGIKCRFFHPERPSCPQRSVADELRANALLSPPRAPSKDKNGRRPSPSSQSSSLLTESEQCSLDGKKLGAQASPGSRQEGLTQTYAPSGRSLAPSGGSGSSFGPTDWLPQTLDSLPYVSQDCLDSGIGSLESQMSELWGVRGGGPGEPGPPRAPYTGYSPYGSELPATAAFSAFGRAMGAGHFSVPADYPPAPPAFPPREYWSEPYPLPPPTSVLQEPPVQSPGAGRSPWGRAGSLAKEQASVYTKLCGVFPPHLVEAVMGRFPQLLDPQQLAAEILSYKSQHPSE
Method in brief: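 FLAG/BirA-tagged human Regnase-1 constructs (full-length, 1–546 or 301–599), expressed in Expi293 cells, were used at 2 nM with compound and phosphorylated by IKKβ or TBK1 with 10 μM ATP, DTT, vanadate and MnCl2 for 2 h at room temperature. Phospho-Regnase-1 was read by AlphaScreen; IC50 came from % inhibition curves normalised to DMSO and Regnase-1-alone signals.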

[2] = target: T2, ΔCTD_Reg1 (amino acids 1 to 546 of human Regnase-1) phosphorylation by IKKβ (Homo sapiens, UniProt Q5D1E8); assay: Regnase-1 phosphorylation inhibition by compounds (AlphaScreen), IKKβ, CTD-deficient Regnase-1; assay type: biochemical
T2 construct: made in house; host or cells: Expi293 cells
T2 sequence (Q5D1E8 1-546): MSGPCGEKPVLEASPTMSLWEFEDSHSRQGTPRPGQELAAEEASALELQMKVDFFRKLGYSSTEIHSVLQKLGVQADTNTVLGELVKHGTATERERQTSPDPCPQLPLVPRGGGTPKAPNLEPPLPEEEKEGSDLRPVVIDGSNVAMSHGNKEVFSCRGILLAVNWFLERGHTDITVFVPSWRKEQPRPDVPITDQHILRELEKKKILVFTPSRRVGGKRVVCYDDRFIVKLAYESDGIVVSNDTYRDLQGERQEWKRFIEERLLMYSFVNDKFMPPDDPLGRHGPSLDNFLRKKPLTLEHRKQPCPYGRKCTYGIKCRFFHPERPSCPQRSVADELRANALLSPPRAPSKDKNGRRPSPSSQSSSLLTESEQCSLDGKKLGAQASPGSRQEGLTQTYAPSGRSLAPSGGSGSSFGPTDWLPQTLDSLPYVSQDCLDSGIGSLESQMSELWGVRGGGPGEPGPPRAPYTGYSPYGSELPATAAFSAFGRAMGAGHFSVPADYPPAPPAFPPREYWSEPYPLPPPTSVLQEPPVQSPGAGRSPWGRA
Procedure: Among the full-length human Regnase-1 sequence, the 1st to 546th amino acid sequence was prepared and made into a construct having a FLAG tag on the N-terminal side and a biotin ligase BirA recognition sequence on the C-terminal side (herein, a Regnase-1 lacking the C-terminal domain of Regnase-1 (amino acids 547 to 599 in the case of SEQ ID NO: 2) is referred to as “ΔCTD_Reg1”. “ΔCTD_Reg1” is different from “Regnase-1ΔCTD”, which is a C-terminal domain deletion variant resulting from a frameshift mutation caused by a 1 bp deletion at codon 517, as prepared in Example 13). In addition, the sequence from amino acids 301 to 599 of the full-length human Regnase-1 sequence was designated as C-terminal Regnase-1, and a construct having a FLAG tag on the N-terminal side and a recognition sequence for biotin ligase BirA on the C-terminal side was prepared (Reg1_301-599). The above-mentioned Regnase-1 was expressed in mammalian Expi293 cells, purified with FLAG M2 agarose, and isolated by gel filtration chromatography. When biotinylation was required, methods of nonpatent documents (BMC biotechnology, 2008,8,41; and Protein Science, 1999,8,921-929) were used.
Using Kinase assay buffer III (manufactured by SignalChem) supplemented with 2 mM DTT, 100 μM sodium vanadate, and 2 mM manganese chloride, kinase (IKKβ (manufactured by SignalChem) or TBK1 (manufactured by SignalChem)) and Regnase-1 were reacted in the presence of 10 μM ATP at room temperature for 2 hours to perform a phosphorylation reaction.
Phosphorylated Regnase-1 was detected by the AlphaScreen system. After each of the above-mentioned phosphorylated Regnase-1 antibodies was added and reacted at room temperature for one hour, anti-FLAG AlphaLISA Acceptor Beads (manufactured by PerkinElmer) and Protein A AlphaScreen Donor Beads (manufactured by PerkinElmer) were added, and EnVision (manufactured by PerkinElmer) was used to measure the excited luminescence. As a result, phosphorylated Regnase-1 produced by the phosphorylation reaction by kinase was specifically detected, and signals were confirmed to be enhanced in a manner dependent on Regnase-1 and kinase concentrations (FIG. 24).
After mixing 2 nM of the above-mentioned Regnase-1 and the compound, phosphorylated Regnase-1 produced by the phosphorylation reaction was detected by the AlphaScreen system. As the results, the inhibition rate was calculated from the signals obtained when adding the compound at each concentration, by defining the signal obtained with Regnase-1 alone to be 100% inhibition rate, and the signal obtained when the same amount of solvent (DMSO) is added in place of the compound as 0% inhibition rate. The 50% inhibition concentration (μM) was calculated from the obtained dose response curve (Table 11).

[3] = Table 13, phosphorylation by TBK1, read-out: Phosphorylation inhibition FL_Reg1, 50% inhibition concentration (TBK1)
[4] = Table 14, phosphorylation by IKKβ, read-out: Phosphorylation inhibition ΔCTD_Reg1, 50% inhibition concentration (IKKβ)
[5] = Table 11, 2 nM Regnase-1, AlphaScreen, read-out: 50% inhibition concentration, Regnase-1 phosphorylation, FL_Reg1, TBK1
[6] = Table 11, 2 nM Regnase-1, AlphaScreen, read-out: 50% inhibition concentration, Regnase-1 phosphorylation, ΔCTD_Reg1, IKKβ

## CC[C@H](C)[C@@H]1NC(=O)[C@H](CC(=O)O)NC(=O)[C@H](C)N(C)C(=O)C[C@@H](C(=O)N2CCCC2)NC(=O)[C@H](Cc2ccc(O)cc2)NC(=O)[C@H](CC(=O)O)NC(=O)[C@H](Cc2c[nH]c3ccccc23)NC(=O)[C@H](Cc2ccc(O)cc2)NC(=O)[C@H](CC(=O)O)NC(=O)[C@H](Cc2ccccc2)NC(=O)[C@H](Cc2c[nH]c3ccccc23)NC1=O [PP18] (HELM PEPTIDE1{[meA].D.I.W.F.D.Y.W.D.Y.D.[C1CCN([*:1])C1]}$PEPTIDE1,PEPTIDE1,1:R1-11:R3$$$V2.0)
[1]; [3]
  pIC50: 6.22
[2]; [4]
  pIC50: 6.70

## CC[C@H](C)[C@@H]1NC(=O)[C@H](Cc2ccc(O)cc2)NC(=O)[C@H](C)N(C)C(=O)C[C@@H](C(=O)N2CCCC2)NC(=O)[C@H](CC(C)C)NC(=O)[C@H](CC(=O)O)NC(=O)CNC(=O)[C@H](Cc2ccccc2)NC(=O)[C@H](Cc2ccccc2)NC(=O)[C@H](CC(=O)O)NC(=O)[C@H](Cc2c[nH]c3ccccc23)NC1=O [PP4] (HELM PEPTIDE1{[meA].Y.I.W.D.F.F.G.D.L.D.[C1CCN([*:1])C1]}$PEPTIDE1,PEPTIDE1,1:R1-11:R3$$$V2.0)
[1]; [5]
  pIC50: 4.21
[2]; [6]
  pIC50: 5.08

## CC[C@H](C)[C@@H]1NC(=O)[C@H](Cc2c[nH]c3ccccc23)NC(=O)[C@@H](Cc2ccccc2)NC(=O)[C@H](CCCCN)NC(=O)[C@H](C)N(C)C(=O)C[C@@H](C(=O)N2CCCC2)NC(=O)[C@H](CCC(=O)O)NC(=O)[C@H](Cc2ccccc2)NC(=O)[C@H](CO)NC(=O)[C@H](Cc2c[nH]cn2)NC(=O)[C@H](Cc2c[nH]cn2)NC1=O [PP20] (HELM PEPTIDE1{[meA].K.[dF].W.I.H.H.S.F.E.D.[C1CCN([*:1])C1]}$PEPTIDE1,PEPTIDE1,1:R1-11:R3$$$V2.0)
[1]; [3]
  pIC50: 4.41
[2]; [4]
  pIC50: < 4.21

## CC[C@H](C)[C@@H]1NC(=O)[C@H](CCCCN)NC(=O)[C@H](Cc2ccc(O)cc2)NC(=O)[C@H](Cc2c[nH]c3ccccc23)NC(=O)[C@H](CO)NC(=O)[C@H](CO)NC(=O)[C@H]([C@@H](C)O)NC(=O)[C@@H]2CCCN2C(=O)[C@@H](C)N(C)C(=O)C[C@@H](C(=O)N2CCCC2)NC(=O)[C@H](Cc2c[nH]c3ccccc23)NC1=O [PP23] (HELM PEPTIDE1{[C[C@H](C(=O)[*:2])N(C)[*:1]].P.T.S.S.W.Y.K.I.W.D.[C1CCN([*:1])C1]}$PEPTIDE1,PEPTIDE1,1:R1-11:R3$$$V2.0)
[1]; [3]
  pIC50: 4.73
[2]; [4]
  pIC50: < 4.21

## CC[C@H](C)[C@@H]1NC(=O)[C@H](CC(N)=O)NC(=O)[C@H](Cc2ccc(O)cc2)NC(=O)[C@H](Cc2c[nH]c3ccccc23)NC(=O)[C@H](C)NC(=O)[C@H](CC(N)=O)NC(=O)[C@H](CO)NC(=O)[C@H](Cc2c[nH]cn2)NC(=O)[C@H](C)N(C)C(=O)C[C@@H](C(=O)N2CCCC2)NC(=O)[C@H](Cc2c[nH]c3ccccc23)NC1=O [PP5] (HELM PEPTIDE1{[meA].H.S.N.A.W.Y.N.I.W.D.[C1CCN([*:1])C1]}$PEPTIDE1,PEPTIDE1,1:R1-11:R3$$$V2.0)
[1]; [5]
  pIC50: 4.62
[2]; [6]
  pIC50: 4.69

## CC[C@H](C)[C@@H]1NC(=O)[C@H](CCCCN)NC(=O)[C@H](Cc2ccccc2)NC(=O)[C@H](Cc2c[nH]c3ccccc23)NC(=O)[C@H](CO)NC(=O)[C@H](CO)NC(=O)[C@H](CC(N)=O)NC(=O)[C@@H]2CCCN2C(=O)[C@@H](C)N(C)C(=O)C[C@@H](C(=O)N2CCCC2)NC(=O)[C@H](Cc2c[nH]c3ccccc23)NC1=O [PP6] (HELM PEPTIDE1{[C[C@H](C(=O)[*:2])N(C)[*:1]].P.N.S.S.W.F.K.I.W.D.[C1CCN([*:1])C1]}$PEPTIDE1,PEPTIDE1,1:R1-11:R3$$$V2.0)
[1]; [5]
  pIC50: 4.88
[2]; [6]
  pIC50: 4.69

## CC[C@H](C)[C@@H]1NC(=O)[C@H](Cc2c[nH]c3ccccc23)NC(=O)[C@H](CCC(N)=O)NC(=O)[C@H](Cc2ccc(O)cc2)NC(=O)[C@H](C(C)C)NC(=O)[C@H](C)NC(=O)[C@H](Cc2ccc(O)cc2)NC(=O)[C@H](CCCNC(=N)N)NC(=O)[C@H](C)N(C)C(=O)C[C@@H](C(=O)N2CCCC2)NC(=O)[C@@H]2CCCN2C(=O)[C@H](Cc2ccc(O)cc2)NC1=O [PP12] (HELM PEPTIDE1{[meA].R.Y.A.V.Y.Q.W.I.Y.P.D.[C1CCN([*:1])C1]}$PEPTIDE1,PEPTIDE1,1:R1-12:R3$$$V2.0)
[1]; [3]
  pIC50: 4.90
[2]; [4]
  pIC50: 4.57

## CC[C@H](C)[C@@H]1NC(=O)[C@H](CCCNC(=N)N)NC(=O)[C@H](Cc2ccc(O)cc2)NC(=O)[C@H](Cc2c[nH]c3ccccc23)NC(=O)[C@H](C)NC(=O)[C@H](CO)NC(=O)[C@H](C)NC(=O)[C@H](Cc2c[nH]cn2)NC(=O)[C@H](CCCCN)NC(=O)[C@@H](C)N(C)C(=O)C[C@@H](C(=O)N2CCCC2)NC(=O)[C@H](Cc2c[nH]c3ccccc23)NC1=O [PP3] (HELM PEPTIDE1{[C[C@H](C(=O)[*:2])N(C)[*:1]].K.H.A.S.A.W.Y.R.I.W.D.[C1CCN([*:1])C1]}$PEPTIDE1,PEPTIDE1,1:R1-12:R3$$$V2.0)
[1]; [5]
  pIC50: 5.41
[2]; [6]
  pIC50: 5.08
